O=C1[C@H]2C[C@@H](OCc3ccc(Br)cc3)CN2C(=O)N1c1cc(Cl)cc(Cl)c1 [Example 6, (7aR,6R)-2-(3,5-dichloro-phenyl)-6-(4-bromobenzyloxy)-tetrahydro-pyrrolo[1,2-c]imidazole-1,3-dione]
melting point: 135 °C
